Experimental data as given in article PMC6397651 (Journal of pharmaceutical and biomedical analysis, 2018).
Values joined by “and” are separate entries in the source; they are usually repeats but may differ in a detail not shown here. Equal values may be shown once.

What was measured:
[1] = Stability of analytes in rat plasma; assay type: in vitro ADME; settings: for Autosampler stability, % Accuracy / Short-term Stability, % Accuracy: 20°C, 24 hr; for Short-term Stability, % Accuracy / Mean short term stability / Long-term Stability, % Accuracy / Freeze-Thaw Stability, % Accuracy / Mean freeze-thaw stability / Mean long term stability: rat plasma; for Mean short term stability / Auto sampler stability / Mean freeze-thaw stability / Mean long term stability: range over LQC and HQC; for Long-term Stability, % Accuracy / Freeze-Thaw Stability, % Accuracy: −70 ± 10°C; for Long-term Stability, % Accuracy: 30 days; for Freeze-Thaw Stability, % Accuracy: three cycles
[2] = In-vivo pharmacokinetic study in rats: passive cannabis smoke inhalation; settings: for CL/F (apparent clearance): Rimonabant 3 mg/kg i.p.
[3] = THC, inhalation, 50 min smoke exposure, Wistar rats
[4] = male, Wistar, rat, plasma, inhaled or intranasal, 0.05 mg/kg
[5] = male, Wistar, rat, plasma, ip, 3 mg/kg

Compound: CCCCCc1cc(O)c2c(c1)OC(C)(C)[C@@H]1CCC(C)=C[C@@H]21 [THC, delta-9-tetrahydrocannabinol]
- Autosampler stability, % Accuracy ([1]; HQC 80 ng/mL): 99.97%
- Autosampler stability, % Accuracy ([1]; LQC 0.3 ng/mL): 105.30%
- Short-term Stability, % Accuracy ([1]; HQC 80 ng/mL): 104.40%
- Short-term Stability, % Accuracy ([1]; LQC 0.3 ng/mL): 103.20%
- Mean short term stability [1]: 103.20–104.40%
- Long-term Stability, % Accuracy ([1]; HQC 80 ng/mL): 97.20%
- Long-term Stability, % Accuracy ([1]; LQC 0.3 ng/mL): 108.30%
- Freeze-Thaw Stability, % Accuracy ([1]; HQC 80 ng/mL): 109.20%
- Freeze-Thaw Stability, % Accuracy ([1]; LQC 0.3 ng/mL): 112.80%
- CL (clearance) [2, 3]: 1.1 ± 0.26 L/h
- Vss (volume of distribution at steady state) [2, 3]: 3.9 ± 2.07 L
- AUC(0-inf) [2, 4]: 0.0139 ± 0.0038 µg·h/mL
- AUC(0-t) [2, 4]: 0.0122 ± 0.003 µg·h/mL
- half-life [2, 4]: 3.7 ± 1.3 h
- AUC(0-inf) ([2]; male, Wistar, rat, plasma, inhaled, 0.05 mg/kg): 0.0139 µg·h/mL

Compound: C=C(C)[C@@H]1CCC(C)=C[C@H]1c1c(O)cc(CCCCC)cc1O [CBD, cannabidiol]
- Autosampler stability, % Accuracy ([1]; HQC 80 ng/mL): 96.80%
- Autosampler stability, % Accuracy ([1]; LQC 0.3 ng/mL): 103.60%
- Auto sampler stability [1]: 96.80–103.60%
- Short-term Stability, % Accuracy ([1]; HQC 80 ng/mL): 99.60%
- Short-term Stability, % Accuracy ([1]; LQC 0.3 ng/mL): 97.50%
- Mean freeze-thaw stability [1]: 105.21–108.50%
- Mean long term stability [1]: 103.30–106.50%
- Mean short term stability [1]: 97.50–99.60%
- Long-term Stability, % Accuracy ([1]; HQC 80 ng/mL): 103.30%
- Long-term Stability, % Accuracy ([1]; LQC 0.3 ng/mL): 106.50%
- Freeze-Thaw Stability, % Accuracy ([1]; HQC 80 ng/mL): 105.21%
- Freeze-Thaw Stability, % Accuracy ([1]; LQC 0.3 ng/mL): 108.50%

Compound: Cc1c(C(=O)NN2CCCCC2)nn(-c2ccc(Cl)cc2Cl)c1-c1ccc(Cl)cc1 [Rimonabant, rimonabant]
- Autosampler stability, % Accuracy ([1]; HQC 80 ng/mL): 102.30%
- Autosampler stability, % Accuracy ([1]; LQC 0.3 ng/mL): 104.50%
- Auto sampler stability [1]: 102.30–104.50%
- Short-term Stability, % Accuracy ([1]; HQC 80 ng/mL): 104.30%
- Short-term Stability, % Accuracy ([1]; LQC 0.3 ng/mL): 95.70%
- Mean freeze-thaw stability [1]: 106.25–109.50%
- Mean long term stability [1]: 96.90–99.40%
- Mean short term stability [1]: 95.70–104.30%
- Long-term Stability, % Accuracy ([1]; HQC 80 ng/mL): 99.40%
- Long-term Stability, % Accuracy ([1]; LQC 0.3 ng/mL): 96.90%
- Freeze-Thaw Stability, % Accuracy ([1]; HQC 80 ng/mL): 109.50%
- Freeze-Thaw Stability, % Accuracy ([1]; LQC 0.3 ng/mL): 106.25%
- CL/F (apparent clearance) ([2]; Wistar rats): 2.0 L/h and 2.0 ± 0.3 L/h
- CL/F (apparent clearance) ([2]; Wistar rats, listed as rimonabant): 2 L/h
- AUC(0-inf) [2, 5]: 0.458 µg·h/mL
- AUC(0-t) [2, 5]: 0.308 ± 0.055 µg·h/mL
- Cmax [2, 5]: 0.0886 ± 0.00564 µg/mL
- Tmax [2, 5]: 0.2 ± 0.07 h
- half-life [2, 5]: 5.4 ± 0.85 h
